From US20030125336A1, “Hydrohalide salts of an HIV protease inhibitor” (priority 2001, published 2003)
pIC50: −log10 of the molar value.

Tests used:
[1] = biological target: HIV protease mutant enzyme V-18 (Human immunodeficiency virus type 1, UniProt P04585); assay: inhibition of microbial expressed HIV protease (WO 01/05230), mutant enzyme V-18; assay type: biochemical
[2] = tested on: viral construct Q60; assay: cell spread assay (WO 01/05230), viral construct Q60; assay type: cell-based, HIV
Excerpt: (§1) Compound A and its hydrohalide salts are inhibitors of HIV protease, including mutant forms thereof that are resistant to known protease inhibitors.

[3] = solubility in aqueous solutions; assay type: physicochemical; details: aqueous solutions including dilute HCl (gastric acid) solutions
[4] = biological target: wild-type HIV protease (Human immunodeficiency virus type 1 group M subtype B, UniProt P04585); assay: biochemical
[5] = biological target: HIV protease mutant enzyme Q-60 (Human immunodeficiency virus type 1, UniProt P04585); assay: inhibition of microbial expressed HIV protease (WO 01/05230), mutant enzyme Q-60; assay type: biochemical
[6] = tested on: wild-type viral construct; assay: cell spread assay (WO 01/05230), wild-type viral construct; assay type: cell-based, HIV
Excerpt: as §1

[7] = biological target: HIV protease mutant enzyme K-60 (Human immunodeficiency virus type 1, UniProt P04585); assay: inhibition of microbial expressed HIV protease (WO 01/05230), mutant enzyme K-60; assay type: biochemical
[8] = tested on: viral construct V-18; assay: cell spread assay (WO 01/05230), viral construct V-18; assay type: cell-based, HIV
Excerpt: as §1

[9] = tested on: viral construct K-60; assay: cell spread assay (WO 01/05230), viral construct K-60; assay type: cell-based, HIV
Excerpt: as §1

[10] = oral absorption and pharmacokinetics in animal models; assay type: in vivo

SMILES: COc1cncc(-c2cnc(C(C)(C)N3CCN(C[C@@H](O)C[C@@H](Cc4ccccc4)C(=O)N[C@H]4c5ccccc5OC[C@H]4O)[C@H](C(=O)NCC(F)(F)F)C3)o2)c1 [Compound A, (αR,γS,2S)-N-[(3S,4S)-3,4-dihydro-3-hydroxy-2H-1-benzopyran-4-yl]-y-hydroxy-4-[1-[5-(5-methoxy-3-pyridinyl)-2-oxazolyl]-1-methylethyl]-α-(phenylmethyl)-2-[[(2,2,2-trifluoroethyl)amino]carbonyl]-1-piperazinepentanamide]
- pIC50 [1]: > 8.30
- CIC95 [2]: below 125 nM
- solubility [3]: relatively low solubility
- pIC50 [4]: > 9.00
- potency compared with indinavir ([4]; HIV protease inhibition assay): significantly more potent
- pIC50 [5]: > 8.30
- potency compared with indinavir ([6]; cell spread assay): significantly more potent
- CIC95 ([6]; wild-type viral construct): below 50 nM
- pIC50 [7]: > 8.30
- CIC95 [8]: below 125 nM
- CIC95 [9]: below 125 nM
- oral absorption [10]: poor oral absorption
